# Test results taken from US9376470B2, “Polypeptide having angiogenesis-inducing activity and antibacterial activity, and use thereof for medical purposes” (FunPep Inc., priority 2008, dated 2016).
# Peptide text beside a SMILES is read from it.
# How the values were obtained:
# Assay type in all cases: cell-based
# [1] = test system: Pseudomonas aeruginosa ATCC27853; assay: Antibacterial activity, ATP assay (BacTiter-Glo); details: Table 4-1; ATP assay concentration: peptides 10, TOB 1.0, CPFX 1.0, OX 0.5, MEPM 1.0 μg/ml
# Description: (§1) The antibacterial activity of the polypeptides was measured using an ATP assay method. That is, using BacTiter-Glo Microbial Cell Viability Assay kit available from PROMEGA, the antibacterial activity of the peptides was evaluated from the viability of bacteria. […] With respect to the strains, Staphylococcus aureus ATCC29213 (S. aureus ATCC29213) as Gram-positive bacteria, or, alternatively, Pseudomonas aeruginosa (P. aeruginosa ATCC27853) as Gram-negative bacteria, was used. The bacteria were cultured in media for 3 to 4 hours, and thereafter absorbances at A600 were measured. Bacterial suspensions were diluted with Mueller-Hinton broth (MHB) according to McFarland #0.5. Each strain was added so as to attain about 0.5−1×10^5 CFU/mL (final concentration) in terms of Escherichia coli. […] A solution to which the peptides were not added was considered as a negative control, and a solution to which tobramycin (TOB) was added was considered as a positive control. […] Relative values were calculated by comparison with the negative control, and these values were regarded as the viability. ATP (%) of the antibacterial activity was measured in the same manner as mentioned above, and the “minimum inhibitory concentration (MIC)” was measured as follows. MIC is the lowest concentration of an agent that may inhibit the growth of a bacterium. MIC is used as a parameter for the efficacy of an antibacterial agent, for the strength of bacterial sensitivity, or the like. The bacteria can grow (proliferate) when the concentration is not higher than MIC, and cannot grow when the concentration is higher than MIC. Its measurement is carried out according to a method defined as a standard method by Japanese Society of Chemotherapy or CLINICAL AND LABORATORY […] (CLSI), but, in this Example, its measurement was carried out by a broth microdilution method in accordance with “M100-S17/M7-A7” (Performance Standards for Antimicrobial Susceptibility Testing; Seventeenth Informational Supplement, Vol. 27 No. 1) published by CLSI on January, 2007. That is, sensitivity test of agents was carried out using a microtiter plate or test tubes. With respect to each strain, Escherichia coli: ATCC 25922 (Escherichia coli ATCC 25922), Pseudomonas aeruginosa: ATCC 27853 (Pseudomonas aeruginosa ATCC 27853), Staphylococcus aureus: ATCC29213 (Staphylococcus aureus ATCC29213), Klebsiella pneumoniae: JCM 1662 (Klebsiella pneumoniae JCM 1662), enterobacteria (1): JCM 1232 (Enterobacter cloacae JCM 1232), enterobacteria (2): JCM 1235 (Enterobacter aerogenes JCM 1235), and Staphylococcus epidermidis: JCM 2414 (Staphylococcus epidermidis JCM 2414), were used. […] As the concentrations of the agents in ATP assay, the concentrations as described in the Tables were used.
# [2] = test system: Enterobacteria (2): Enterobacter aerogenes JCM 1235; assay: Antibacterial activity, ATP assay (BacTiter-Glo); details: ATP assay concentration: peptides 10, TOB 4.0, CPFX 1.0, OX 4.0, MEPM 8.0 μg/ml
# Description: (§2) That is, using BacTiter-Glo Microbial Cell Viability Assay kit available from PROMEGA, the antibacterial activity of the peptides was evaluated from the viability of bacteria. […] With respect to the strains, Staphylococcus aureus ATCC29213 (S. aureus ATCC29213) as Gram-positive bacteria, or, alternatively, Pseudomonas aeruginosa (P. aeruginosa ATCC27853) as Gram-negative bacteria, was used. The bacteria were cultured in media for 3 to 4 hours, and thereafter absorbances at A600 were measured. Bacterial suspensions were diluted with Mueller-Hinton broth (MHB) according to McFarland #0.5. Each strain was added so as to attain about 0.5−1×10^5 CFU/mL (final concentration) in terms of Escherichia coli. […] A solution to which the peptides were not added was considered as a negative control, and a solution to which tobramycin (TOB) was added was considered as a positive control. […] Relative values were calculated by comparison with the negative control, and these values were regarded as the viability. […] ATP (%) of the antibacterial activity was measured in the same manner as mentioned above, and the “minimum inhibitory concentration (MIC)” was measured as follows. MIC is the lowest concentration of an agent that may inhibit the growth of a bacterium. MIC is used as a parameter for the efficacy of an antibacterial agent, for the strength of bacterial sensitivity, or the like. The bacteria can grow (proliferate) when the concentration is not higher than MIC, and cannot grow when the concentration is higher than MIC. Its measurement is carried out according to a method defined as a standard method by Japanese Society of Chemotherapy or CLINICAL AND LABORATORY […] (CLSI), but, in this Example, its measurement was carried out by a broth microdilution method in accordance with “M100-S17/M7-A7” (Performance Standards for Antimicrobial Susceptibility Testing; Seventeenth Informational Supplement, Vol. 27 No. 1) published by CLSI on January, 2007. That is, sensitivity test of agents was carried out using a microtiter plate or test tubes. With respect to each strain, Escherichia coli: ATCC 25922 (Escherichia coli ATCC 25922), Pseudomonas aeruginosa: ATCC 27853 (Pseudomonas aeruginosa ATCC 27853), Staphylococcus aureus: ATCC29213 (Staphylococcus aureus ATCC29213), Klebsiella pneumoniae: JCM 1662 (Klebsiella pneumoniae JCM 1662), enterobacteria (1): JCM 1232 (Enterobacter cloacae JCM 1232), enterobacteria (2): JCM 1235 (Enterobacter aerogenes JCM 1235), and Staphylococcus epidermidis: JCM 2414 (Staphylococcus epidermidis JCM 2414), were used. […] As the concentrations of the agents in ATP assay, the concentrations as described in the Tables were used.
# [3] = test system: Escherichia coli ATCC 25922; assay: Antibacterial activity, ATP assay (BacTiter-Glo); details: ATP assay concentration: peptides 10, TOB 1.0, CPFX 0.015, OX 0.5, MEPM 0.1 μg/ml
# Description: as §2
# [4] = test system: Klebsiella pneumoniae JCM 1662; assay: Antibacterial activity, ATP assay (BacTiter-Glo); details: ATP assay concentration: peptides 10, TOB 4.0, CPFX 1.0, OX 0.5, MEPM 8.0 μg/ml
# Description: as §2
# [5] = test system: Staphylococcus epidermidis JCM 2414; assay: Antibacterial activity, ATP assay (BacTiter-Glo); details: ATP assay concentration: peptides 10, TOB 1.0, CPFX 0.5, OX 0.5, MEPM 0.125 μg/ml
# Description: as §2
# [6] = test system: Staphylococcus aureus ATCC29213; assay: Antibacterial activity, ATP assay (BacTiter-Glo); details: 10 μg/mL, ATP assay
# Description: as §1
# [7] = test system: human vascular endothelial cells and fibroblast cells (co-culture); assay: Lumen formation with angiogenesis kit KZ-1000 (section 7); details: day 11
# Description: Using an angiogenesis kit available from KURABO […] LTD. (Product No.: KZ-1000), lumen formation by the polypeptides was evaluated. Vascular endothelial growth factor A (VEGF-A) as a positive control, and polypeptide-free, unstimulated group as a negative control, were used.
# Using a special medium for angiogenesis which was attached to the kit, each polypeptide was prepared such that the concentration thereof was respectively 0.5, 2.5 and 10 μg/mL. To a 24-well plate in which cells were plated (the cells were those obtained by co-culturing human vascular endothelial cells and fibroblast cells at an optimum concentration) which was attached to the kit, the special medium for angiogenesis containing each polypeptide was added, and the cells were cultured at 37° C. under 5% CO2. The medium was replaced with a medium containing the same additive on day 4, day 7 and day 9 of culture. On day 11 from the beginning of the culture, staining was performed using a kit for staining lumina (for CD31 antibody staining) according to the following procedure.
# The media were removed, and washing was performed with Dulbecco's phosphate buffered saline (PBS(−)). Thereafter, ice-cooled 70% ethanol was added to the plate, and the cells were fixed. Each well was washed with a blocking solution (Dulbecco's phosphate buffered saline (PBS(−)) containing 1% BSA). To each well, 0.5 mL of the primary antibody for CD31 staining (mouse anti-human CD31 antibody) 4000-fold diluted with the blocking solution was added, and then the plate was incubated for 60 minutes at 37° C. After the completion of the incubation, each well was washed totally 3 times with 1 mL of the blocking solution. Then, 0.5 mL of the secondary antibody solution (goat anti-mouse IgG/alkaline phosphatase conjugate) 500-fold diluted with the blocking solution was added to each well. The plate was incubated for 60 minutes at 37° C., and thereafter each well was washed 3 times with 1 mL of distilled water. During that period, 2 tablets of BCIP/NBT were dissolved into distilled water, and the obtained solution was filtered through a filter having a pore size of […] to prepare a substrate solution. To each well, 0.5 mL of the prepared BCIP/NBT substrate solution was added, and the plate was incubated at 37° C. until the lumina turned to deep purple (typically for 5-10 minutes). After the completion of the incubation, each well was washed 3 times with 1 mL of distilled water. After washing, the washing solution was removed by aspiration, and the plate was left to stand and dry naturally. After drying, photographs of each well were taken under a microscope.
# Each of the obtained images was quantified using an angiogenesis quantification software. The area and length of formed lumina observed in each visual field were measured on the basis of the scale of an angiogenesis quantification software available from KURABO […] LTD. (angiogenesis quantification software Ver 1.0), and evaluated on the basis of the ratio of the area or length of polypeptide-containing groups relative to the area or length of the negative control group.
# [8] = VEGF-A positive control, concentration not given
compound,measurement,setting,value
"O=C(O)c1cn(C2CC2)c2cc(N3CCNCC3)c(F)cc2c1=O [CPFX, ciprofloxacin, reference compound]","ATP (%) mean, Pseudomonas aeruginosa",[1],2.3%
same,"ATP (%) mean, Enterobacteria (2)",[2],3.2%
same,"ATP (%) mean, Escherichia coli",[3],15.4%
same,"ATP (%) mean, Klebsiella pneumoniae",[4],8.2%
same,"ATP (%) mean, Staphylococcus epidermidis",[5],7.3%
CSCC[C@H](N)C(=O)N[C@@H](CCCNC(=N)N)C(=O)N[C@@H](CCCCN)C(=O)N[C@@H](CCCNC(=N)N)C(=O)N[C@@H](CC(C)C)C(=O)N[C@@H](CCCCN)C(=O)N[C@@H](CCCNC(=N)N)C(=O)N[C@@H](CCCCN)C(=O)N[C@@H](CC(C)C)C(=O)N[C@@H](CCCNC(=N)N)C(=O)N[C@@H](CC(C)C)C(=O)N[C@@H](Cc1c[nH]c2ccccc12)C(=O)N[C@@H](Cc1c[nH]cn1)C(=O)N[C@@H](CCCNC(=N)N)C(=O)N[C@@H](CCCCN)C(=O)N[C@@H](CCCNC(=N)N)C(=O)N[C@@H](Cc1ccc(O)cc1)C(=O)N[C@@H](CCCCN)C(N)=O [SR-6] (H-MRKRLKRKLRLWHRKRYK-NH2; N-terminus assumed),antibacterial activity against Staphylococcus aureus compared with AG30-5C,[6],higher antibacterial activity against Staphylococcus aureus than AG30-5C
same,"The Area of Lumina (relative value, negative control as 100)",[7]; polypeptide 0.5 μg/mL,97.3
same,"The Length of Lumina (relative value, negative control as 100)",[7]; polypeptide 0.5 μg/mL,98.4
same,"The Area of Lumina (relative value, negative control as 100)",[7]; polypeptide 10 μg/mL,98.6
same,"The Length of Lumina (relative value, negative control as 100)",[7]; polypeptide 10 μg/mL,96.6
Vascular endothelial growth factor A [VEGF-A],"The Area of Lumina (relative value, negative control as 100)",[7]; [8],189.2
same,"The Length of Lumina (relative value, negative control as 100)",[7]; [8],169.8
